The record followed here is ChEMBL document CHEMBL1212883, “Limonoids from the leaves of Cipadessa baccifera” (J Nat Prod, 2010).

Common to all, as to format: functional, cell-based
The test system of assay [1] is HL-60. The experiment in a line: Cytotoxicity against human HL60 cells after 72 hrs by MTT assay. The following applies: HL-60, 72 h.
For assay [2], the system named is SMMC-7721. The experiment in a line: Cytotoxicity against human SMMC7721 cells after 72 hrs by MTT assay. Conditions: SMMC-7721, 72 h. For orientation: Tetrazolium assays rely on reduction of a dye to a coloured formazan, in cell work by metabolically active cells.
In assay [3] the test system is A549. The experiment in a line: Cytotoxicity against human A549 cells after 72 hrs by MTT assay. Conditions: A549, 72 h.
Assay [4] concerns MCF7. Put plainly: Cytotoxicity against human MCF7 cells after 72 hrs by MTT assay. Conditions: MCF7, 72 h.
Assay [5] has as its system SW480. Put plainly: Cytotoxicity against human SW480 cells after 72 hrs by MTT assay. The following applies: SW480, 72 h.

pIC50: −log10 of the molar value. Bounds are passed on as bounds.

Turning to `C=C1[C@]2(O)C(=O)C[C@@]3(C)[C@H](c4ccoc4)OC(=O)C[C@]13O[C@H]1[C@@H](OC(C)=O)[C@@H](OC(C)=O)C(C)(C)[C@H](CC(=O)OC)[C@]12C` [CIPADESIN P], the negative-log IC50 (pIC50) in assay [1], in assay [2], in assay [3], in assay [4] and in assay [5] was under 4.40 throughout.

Regarding `CCC(C)C(=O)O[C@H]1C(C)(C)[C@H](CC(=O)OC)[C@]2(C)C(=O)[C@@]1(O)CC1=C3CC(=O)O[C@@H](c4ccoc4)[C@]3(C)CC[C@@H]12` (stereo not given in full) [CIPADESIN N], the pIC50 in assay [1], in assay [2], in assay [3], in assay [4] and in assay [5] was under 4.40 throughout.

Regarding `C=C1[C@]2(O)CC[C@@]3(C)[C@H](c4ccoc4)OC(=O)C[C@]13O[C@H]1C[C@@H](OC(C)=O)C(C)(C)[C@H](CC(=O)OC)[C@]12C` [CIPADESIN Q], the negative logarithm of the IC50 (pIC50) in assay [1], in assay [2], in assay [3], in assay [4] and in assay [5] was under 4.40 each time.

Take `CCC(C)C(=O)O[C@@H]1[C@@H]2OC[C@]3(C)[C@H](OC(C)=O)C[C@H](OC(C)=O)[C@](C)([C@H]4CC[C@@]5(C)[C@H](c6ccoc6)C(=O)[C@@H]6O[C@@]65[C@]14C)[C@@H]23` (stereo not given in full) [CIPADESIN M]: the negative-log IC50 (pIC50) in assay [1], in assay [2], in assay [3], in assay [4] and in assay [5] was under 4.40 in each case.

Turning to `CCC(C)C(=O)O[C@@H]1[C@@H]2OC[C@]3(C)[C@H](OC(C)=O)C[C@H](OC(C)=O)[C@@](C)([C@@H]23)[C@H]2CC[C@]3(C)C(=CC(=O)[C@H]3c3ccoc3)[C@]12C` (stereo not given in full) [CIPADESIN L], the negative logarithm of the IC50 (pIC50) in assay [1], in assay [2], in assay [3], in assay [4] and in assay [5] was under 4.40 throughout.

With `CCC(C)C(=O)O[C@@H]1[C@H]2C(=O)[C@](C)(C3=CC[C@]4(C)[C@@H](CC(=O)O[C@H]4c4ccoc4)[C@]34O[C@H]24)[C@@H](CC(=O)OC)C1(C)C` (stereo not given in full) [CIPADESIN O], the pIC50 in assay [1], in assay [2], in assay [3], in assay [4] and in assay [5] was under 4.40 in each case.

As to `CCC(C)C(=O)O[C@@H]1[C@@H]2OC[C@]3(C)[C@H](OC(C)=O)C[C@H](OC(C)=O)[C@](C)([C@H]4CC[C@@]5(C)[C@H](c6ccoc6)OC(=O)[C@@H]6O[C@@]65[C@]14C)[C@@H]23` (stereo not given in full) [CIPADESIN K], the pIC50 is under 4.40 in assay [1]; under 4.40 in assay [2]; under 4.40 in assay [3]; under 4.40 in assay [4]; 4.44 in assay [5].

As to `CC(=O)O[C@H]1C[C@@H](OC(C)=O)[C@@]2(C)CO[C@H]3[C@@H](O)[C@]4(C)[C@H](CC[C@@]5(C)[C@H](c6ccoc6)OC(=O)[C@@H]6O[C@]645)[C@]1(C)[C@@H]32` [CIPADESIN J], the pIC50 in assay [1] is under 4.40; in assay [2] it was 4.69; in assay [3], under 4.40; in assay [4] it was under 4.40; in assay [5] it was 4.70.

Broadly, the pIC50 is −log10 of the IC50, conventionally taken in molar units. Low readings indicate a high IC50, high ones a low IC50.
